# Several values for one entry are separate records, joined by “and”; a condition that tells them apart may be missing. Equal entries are not always repeated.
# Key:
# ALS/MND patients [1] = conditions: over 24 weeks; mildly symptomatic group; placebo lost 7.5 points; cited from earlier work
# ALS/MND patients [2] = conditions: 24 week treatment; mixed patient population, median ALSFRS-R score 43; cited from earlier work
# ALS/MND patients [3] = test: Second Phase III trial of Edaravone in a selected mildly symptomatic group; conditions: 24 weeks; mildly symptomatic subgroup
# ALS/MND patients [4] = conditions: cited from earlier work
# [5] = system: isolated rat islet cultures; test: Glucagon secretion from collagenase-isolated rat pancreatic islet cultures (Quantikine ELISA); type: cell-based, Wistar rats; conditions: peptide 1 μg/ml; for Glucagon level, Medium plus Peptide A: RPMI 1640, 11 mmol/L glucose, 10% FCS
# Experimental: Digestion of pancreatic tissue with collagenase to isolate islets causes similar disruption to the signalling molecules via disorganization of ECM components including laminin, fibronectin and collagen (Lee & Blaufox, J Nucl Med, 1985, 25:72-76) that results in similarly abnormally high glucagon secretion.
# Islets from 2 Wistar rats (˜250 g) were isolated according to the method of Li et al. (Nature Protocols, 2009, 4:1649-1652) and suspended in 30 ml RPMI 1640 containing 11 mmol/L glucose and 10% FCS. One ml islet suspension was added to each well of 24-well plates. Peptide A dimer (SEQ ID NO: 3) was dissolved in HBSS at 100 μg/ml and added to wells at a final concentration of 1 μg/ml. After appropriate incubation times, samples were removed for glucagon measurements using Quantikine ELISA Immunoassay (R&D Systems).
# ALS/MND patients [6] = test: Clinical data: ALSFRS-R score in ALS/MND patients treated on a named patient basis for 6 months; type: in vivo, human
# Description: Clinical data were obtained from 19 ALS/MND patients treated on a named patient basis, for a period of 6 months, with the Peptide A dimer (SEQ ID NO: 3).
# Average time from diagnosis to treatment was 17.8 months and the decline rate from diagnosis to start of treatment was established for each patient, which averaged at −1.24+/−0.7 decline per month on the ALSFRS-R score. Mean ALSFRS-R score at start of treatment was 32.94+/−8.13, median score 36 (min-max 15-44).
# pancreatic α-cell line = conditions: culture of a pancreatic α-cell line; cited from earlier work
compound,measurement,setting,value
CC1=NN(c2ccccc2)C(=O)C1 [Edaravone],Loss on the ALSFRS-R score,ALS/MND patients [1],5 points
same,Efficacy in initial Phase III trial,ALS/MND patients [2],failed to show any efficacy
same,Slowing down of progression vs placebo,ALS/MND patients [3],33.3%
Nc1nc2ccc(OC(F)(F)F)cc2s1 [Riluzole],Functional advantage,ALS/MND patients [4],no functional advantage demonstrated
CVPSVPIQQFPTEDWS CVPSVPIQQFPTEDWS [Peptide A dimer],% Reduction of glucagon secretion vs medium alone,[5]; 4 hours,31.6%
same,"Glucagon level, Medium plus Peptide A",[5]; 4 hours,425.6 ± 14.8 pg/mL
same,% Reduction of glucagon secretion vs medium alone,[5]; 24 hours,44.8%
same,"Glucagon level, Medium plus Peptide A",[5]; 24 hours,144.8 ± 8.8 pg/mL
same,% Reduction of glucagon secretion vs medium alone,[5]; 72 hours,55.2%
same,"Glucagon level, Medium plus Peptide A",[5]; 72 hours,98.3 pg/mL and 98.3 ± 4.7 pg/mL
same,"Participants who stabilized and rose one point each on the ALSFRS-R scale, share of group",ALS/MND patients [6]; 2/19 patients,10.5%
same,% Slower Progression (actual vs predicted decline),ALS/MND patients [6]; 19 ALS/MND patients,62% and 62.07%
same,"ALSFRS-R Score, C Actual","ALS/MND patients [6]; 19 ALS/MND patients, actual score to time of analysis, baseline 32.94",29.53 +/− 8.26
same,Actual Decline (A-C) in ALSFRS-R score,"ALS/MND patients [6]; 19 ALS/MND patients, predicted decline A-B = 8.99",A-C = 3.41
same,% Slower Progression (actual vs predicted decline),ALS/MND patients [6]; subgroup 7 of 19 patients with faster predicted decline,76.6%
same,"ALSFRS-R Score, C Actual","ALS/MND patients [6]; subgroup 7 of 19 patients with faster predicted decline, baseline 30.43",27.00 +/− 9.90
same,Actual Decline (A-C) in ALSFRS-R score,"ALS/MND patients [6]; subgroup 7 of 19 patients, predicted decline A-B = 14.7",A-C = 3.43
methyl-β-cyclodextrin,Glucagon secretion change,pancreatic α-cell line,doubling of the glucagon secretion
same,Reduction of cholesterol,pancreatic α-cell line,approximately 60%

# — patent US11191803B2, “Laminin receptor peptides for therapy” (priority 2017, dated 2021)
